{
  "source": "patent US20170052170A1",
  "about": "“NOVEL CELL LINES AND METHODS” (priority 2009, published 2017)",
  "key": {"[1]": {"biological_target": "T1, human odorant receptor OR3A1 (Homo sapiens, UniProt P47881, R125Q)", "T1 construct": "expressed in transfected cells; host or cells: 293T (HEK293T)", "T1 sequence (P47881 1-315 R125Q)": "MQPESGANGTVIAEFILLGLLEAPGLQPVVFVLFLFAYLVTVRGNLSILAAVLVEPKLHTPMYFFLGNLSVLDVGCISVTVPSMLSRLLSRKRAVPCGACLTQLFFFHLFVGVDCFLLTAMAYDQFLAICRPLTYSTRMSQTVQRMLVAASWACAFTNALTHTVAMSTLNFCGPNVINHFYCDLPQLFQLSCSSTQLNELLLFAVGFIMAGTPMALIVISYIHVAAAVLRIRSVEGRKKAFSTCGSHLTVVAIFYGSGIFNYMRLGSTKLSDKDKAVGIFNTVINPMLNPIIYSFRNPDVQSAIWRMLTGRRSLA", "experiment": "calcium flux assay in cell line expressing human odorant receptor OR3A1", "assay_type": "cell-based", "conditions": "final concentration 4.5 mM", "procedure": "(§1) FIG. 29 (A-B) depicts representative traces of the functional cell-based response of cells expressing a human odorant receptor to Helional and to Bourgeonal compared to background. FIG. 29A depicts representative traces of the functional cell-based response of a cell line described herein expressing human odorant receptor OR3A1 to Helional (to a final concentration of 4.5 mM) compared to DMSO vehicle background signal as control. Test (black) and control (gray) traces are overlaid. […] The cell-based assay was designed to report calcium flux using a fluorescent calcium signaling dye. Fluorescent assay response is plotted along the Y-axis and time is indicated along the X-axis. Arrows indicate the timepoint at which Helional or DMSO was added."}, "[2]": {"biological_target": "T1, human odorant receptor OR3A1", "experiment": "Calcium mobilization (Fluo-4) assay, HEK293T cells expressing OR3A1 and human Gα15", "assay_type": "cell-based", "conditions": "final concentration 4.5 mM, vs DMSO vehicle, FIG. 29A", "procedure": "(§2) Populations of cells were tested using functional criteria. Calcium mobilization dye Fluo-4 (Invitrogen) was used according to manufacturer's instructions. HEK293T cell lines stably expressing h-OR were maintained under standard cell culture conditions in DMEM medium supplemented with 10% fetal bovine serum and glutamine. On the day before assay, the cells were harvested from stock plates and plated into black clear-bottom 384 well assay plates. The assay plates were maintained in a 37° C. cell culture incubator under 5% CO2 for 22-48 hours. […] The assay plates were then loaded on a fluorescent plate reader (Hamamatsu FDSS) and agonist (4.5 mM Helional for OR3A1 and 0.3 mM Bourgeonal for OR1D2-FIGS. 29A, 29B) dissolved in the above buffer (130 mM NaCl, 5 mM KCl, 2 mM CaCl2, 1.2 mM MgCl2, 10 mM HEPES, 10 mM glucose, pH 7.0) was added. Cells were tested at multiple different densities in 384-well plates and responses were analyzed. […]\n(§3) In order to identify and measure the ligand-induced responsiveness of odorant receptor-expressing HEK293T cells, receptor activation are monitored by measuring receptor-triggered alterations in intracellular calcium levels. […] Software (Hamamatsu FDSS) analysis of images reports the change in relative fluorescence for each well in the cell plate."}, "[3]": {"biological_target": "T2, human odorant receptor OR1D2 (Homo sapiens, UniProt P34982)", "T2 construct": "expressed in transfected cells; host or cells: 293T (HEK293T)", "T2 sequence (P34982 1-312)": "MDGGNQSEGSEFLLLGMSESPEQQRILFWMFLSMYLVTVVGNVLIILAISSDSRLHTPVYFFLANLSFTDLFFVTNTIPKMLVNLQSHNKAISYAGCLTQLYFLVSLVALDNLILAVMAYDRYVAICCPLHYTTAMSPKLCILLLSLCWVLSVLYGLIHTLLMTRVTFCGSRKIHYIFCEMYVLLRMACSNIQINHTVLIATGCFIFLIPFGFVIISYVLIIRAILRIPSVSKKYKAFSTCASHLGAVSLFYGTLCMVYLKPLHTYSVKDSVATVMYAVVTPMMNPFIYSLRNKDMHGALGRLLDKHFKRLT", "experiment": "calcium flux assay in cell line expressing human odorant receptor OR1D2", "assay_type": "cell-based", "conditions": "final concentration 0.3 mM", "procedure": "as §1, with “29B” for “29 (A-B) depicts representative traces of the functional cell-based response of cells expressing a human odorant receptor to Helional and to Bourgeonal compared to background. FIG. 29A”, “OR1D2” for “OR3A1”, “Bourgeonal” for “Helional”, “0.3” for “4.5”"}, "[4]": {"biological_target": "T2, human odorant receptor OR1D2", "experiment": "Calcium mobilization (Fluo-4) assay, HEK293T cells expressing OR1D2 and human Gα15", "assay_type": "cell-based", "conditions": "final concentration 0.3 mM, vs DMSO vehicle, FIG. 29B", "procedure": "as §2, §3"}, "[5]": {"biological_target": "T3, sweet taste receptor (T1R2/T1R3) (Homo sapiens, UniProt Q7RTX0+Q8TE23, C757R/I191V/I486V/R317G)", "T3 construct": "expressed in transfected cells; host or cells: HEK293T (ATCC CRL-11268)", "T3 sequence (Q8TE23 20-839 I191V/R317G/I486V)": "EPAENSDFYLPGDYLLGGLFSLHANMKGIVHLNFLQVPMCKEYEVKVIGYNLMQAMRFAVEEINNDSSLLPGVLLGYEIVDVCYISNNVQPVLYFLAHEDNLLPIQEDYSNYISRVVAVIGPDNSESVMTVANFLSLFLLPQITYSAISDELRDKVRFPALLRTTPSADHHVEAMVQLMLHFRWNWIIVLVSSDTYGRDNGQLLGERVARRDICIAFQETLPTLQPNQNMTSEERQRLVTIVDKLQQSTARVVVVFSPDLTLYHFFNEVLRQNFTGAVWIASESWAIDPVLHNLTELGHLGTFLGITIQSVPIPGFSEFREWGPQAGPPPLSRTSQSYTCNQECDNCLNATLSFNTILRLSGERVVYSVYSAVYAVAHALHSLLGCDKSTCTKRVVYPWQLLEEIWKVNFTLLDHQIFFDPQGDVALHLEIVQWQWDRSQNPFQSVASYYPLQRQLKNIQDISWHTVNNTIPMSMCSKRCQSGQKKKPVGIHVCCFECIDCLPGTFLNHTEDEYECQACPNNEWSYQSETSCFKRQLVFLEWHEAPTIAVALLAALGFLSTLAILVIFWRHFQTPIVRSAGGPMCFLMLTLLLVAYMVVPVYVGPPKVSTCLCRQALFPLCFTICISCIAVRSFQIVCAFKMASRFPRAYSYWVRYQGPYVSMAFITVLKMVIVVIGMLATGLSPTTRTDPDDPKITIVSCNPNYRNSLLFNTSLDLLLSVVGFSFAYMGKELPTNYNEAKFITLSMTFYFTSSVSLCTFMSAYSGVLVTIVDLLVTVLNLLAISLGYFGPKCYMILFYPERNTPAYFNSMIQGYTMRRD", "T3 sequence (Q7RTX0 21-852 C757R)": "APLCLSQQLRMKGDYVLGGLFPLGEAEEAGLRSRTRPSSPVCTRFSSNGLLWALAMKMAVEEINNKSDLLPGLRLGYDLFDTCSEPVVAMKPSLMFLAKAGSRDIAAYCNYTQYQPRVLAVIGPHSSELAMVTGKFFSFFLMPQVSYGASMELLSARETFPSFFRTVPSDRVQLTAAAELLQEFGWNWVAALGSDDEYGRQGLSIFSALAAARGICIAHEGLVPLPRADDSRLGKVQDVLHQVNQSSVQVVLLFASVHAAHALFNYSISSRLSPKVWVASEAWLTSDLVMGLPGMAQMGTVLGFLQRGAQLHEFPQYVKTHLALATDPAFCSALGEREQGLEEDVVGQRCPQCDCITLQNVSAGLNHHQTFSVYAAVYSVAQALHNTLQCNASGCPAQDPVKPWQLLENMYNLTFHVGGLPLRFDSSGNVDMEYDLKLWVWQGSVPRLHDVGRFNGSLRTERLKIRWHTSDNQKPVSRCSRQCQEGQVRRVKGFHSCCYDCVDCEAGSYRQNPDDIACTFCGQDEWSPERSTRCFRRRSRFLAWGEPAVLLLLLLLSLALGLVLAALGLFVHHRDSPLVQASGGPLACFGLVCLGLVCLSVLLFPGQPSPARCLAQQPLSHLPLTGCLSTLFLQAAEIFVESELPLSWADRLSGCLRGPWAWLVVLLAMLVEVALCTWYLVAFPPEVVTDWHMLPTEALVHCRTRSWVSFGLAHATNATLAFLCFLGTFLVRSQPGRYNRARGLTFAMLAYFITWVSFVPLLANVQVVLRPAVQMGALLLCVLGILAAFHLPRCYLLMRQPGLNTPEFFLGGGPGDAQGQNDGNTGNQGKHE", "experiment": "Sweet cell-based calcium flux assay, HEK293T cells expressing T1R2, T1R3 and mouse Gα15", "conditions": "FIG. 20; high density, coated plates, low glucose media, serum deprivation", "quoted_text": "Plates are then loaded on a high throughput plate reader (Hamamatsu FDSS). […] Calcium flux is detected for 90 seconds."}, "[6]": {"biological_target": "T4, umami taste receptor (T1R1 and T1R3 subunits, Gα15) (Homo sapiens, UniProt Q7RTX0+Q7RTX1, C757R)", "T4 construct": "expressed in transfected cells; host or cells: HEK293T (ATCC CRL-11268)", "T4 sequence (Q7RTX1 21-841)": "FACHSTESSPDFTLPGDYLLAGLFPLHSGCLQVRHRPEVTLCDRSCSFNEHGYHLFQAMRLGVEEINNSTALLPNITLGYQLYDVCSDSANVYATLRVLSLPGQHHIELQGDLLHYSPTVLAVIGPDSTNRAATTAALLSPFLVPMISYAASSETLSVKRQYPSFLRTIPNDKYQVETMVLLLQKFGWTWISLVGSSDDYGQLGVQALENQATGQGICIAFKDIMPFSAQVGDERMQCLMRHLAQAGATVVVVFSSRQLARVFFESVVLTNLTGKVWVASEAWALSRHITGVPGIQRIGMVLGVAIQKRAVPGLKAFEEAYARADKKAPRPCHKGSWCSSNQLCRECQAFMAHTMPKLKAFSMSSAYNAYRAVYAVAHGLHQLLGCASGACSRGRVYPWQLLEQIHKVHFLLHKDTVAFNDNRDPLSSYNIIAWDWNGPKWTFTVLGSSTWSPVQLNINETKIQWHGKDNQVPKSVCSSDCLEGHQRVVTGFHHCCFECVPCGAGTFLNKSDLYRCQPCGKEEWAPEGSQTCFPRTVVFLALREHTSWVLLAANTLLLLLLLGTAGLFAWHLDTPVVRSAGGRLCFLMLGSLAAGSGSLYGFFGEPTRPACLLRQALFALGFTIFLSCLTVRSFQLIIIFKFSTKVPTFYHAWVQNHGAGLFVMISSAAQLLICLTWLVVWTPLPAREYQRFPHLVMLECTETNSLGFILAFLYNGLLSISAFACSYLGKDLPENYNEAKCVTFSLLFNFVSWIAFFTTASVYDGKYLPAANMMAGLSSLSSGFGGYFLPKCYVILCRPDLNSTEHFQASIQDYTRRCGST", "T4 sequence (Q7RTX0 21-852 C757R)": "T3 sequence (Q7RTX0 21-852 C757R)", "experiment": "umami taste receptor-expressing cell-based assay", "conditions": "FIGS. 9-12", "text": "To identify a taste receptor modulator (e.g., umami taste receptor modulator or sweet taste receptor modulator), one exposes a cell or cell line of the invention to a test compound under conditions in which the taste receptor (e.g., umami taste receptor or sweet taste receptor) would be expected to be functional and then detects a statistically significant change (e.g., p<0.05) in taste receptor activity (e.g., umami taste receptor activity or sweet taste receptor activity) compared to a suitable control, e.g., cells that are not exposed to the test compound. Positive and/or negative controls using known agonists or antagonists and/or cells expressing different combinations of taste receptor subunits (e.g., umami taste receptor subunits or sweet taste receptor subunits) (and optionally a G protein) may also be used. In some embodiments, the taste receptor activity (e.g., umami taste receptor activity or sweet taste receptor activity) to be detected and/or measured is calcium release from the endoplasmic reticulum as a result of the down stream signaling events following taste receptor activation (e.g., umami taste receptor activation or sweet taste receptor activation). One of ordinary skill in the art would understand that various assay parameters may be optimized, e.g., signal to noise ratio."}},
  "data": [
    {"smiles": "CC(C=O)Cc1ccc2c(c1)OCO2", "note": "(stereo not drawn) [Helional]", "values": [
      {"measurement": "functional cell-based (calcium flux) response compared to DMSO vehicle background", "setting": "[1]", "result": "response to Helional over background"},
      {"measurement": "functional cell-based calcium flux response", "setting": "[2]", "result": "response to Helional over background"}
    ]},
    {"smiles": "CC(C)(C)c1ccc(CCC=O)cc1", "note": "[Bourgeonal]", "values": [
      {"measurement": "functional cell-based (calcium flux) response compared to DMSO vehicle background", "setting": "[3]", "result": "response to Bourgeonal over background"},
      {"measurement": "functional cell-based calcium flux response", "setting": "[4]", "result": "response to Bourgeonal over background"}
    ]},
    {"smiles": "N[C@@H](CCC(=O)O)C(=O)[O-].[Na+]", "note": "[MSG, monosodium glutamate]", "values": [
      {"measurement": "response of cells grown in the \"Final\" growth conditions", "setting": "[5]", "result": "not"},
      {"measurement": "response of umami taste receptor cells and cell lines to known classes of umami compounds", "setting": "[6]", "result": "respond"}
    ]}
  ]
}
